Values quoted from earlier work, collected in US5831004A, “Inhibitors of metalloproteases, pharmaceutical compositions comprising same and methods of their use” (Affymax Technologies N.V., priority 1995, dated 1998).

Biological target: T1, human rheumatoid synovial collagenase (Homo sapiens, UniProt P03956)
T1 sequence (P03956 100-469): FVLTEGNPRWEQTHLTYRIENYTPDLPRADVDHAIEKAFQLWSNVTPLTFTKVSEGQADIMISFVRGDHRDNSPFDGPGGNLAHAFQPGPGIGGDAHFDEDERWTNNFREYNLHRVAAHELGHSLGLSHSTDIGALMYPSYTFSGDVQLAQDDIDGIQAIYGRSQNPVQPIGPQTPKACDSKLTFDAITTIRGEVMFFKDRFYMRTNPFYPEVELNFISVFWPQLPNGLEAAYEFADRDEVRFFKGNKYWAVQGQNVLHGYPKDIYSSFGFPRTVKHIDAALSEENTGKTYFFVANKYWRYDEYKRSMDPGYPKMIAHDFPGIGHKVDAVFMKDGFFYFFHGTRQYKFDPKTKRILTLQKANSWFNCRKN
Conditions: cited from earlier work

CNC(=O)[C@H](Cc1ccc(OC)cc1)NC(=O)[C@H](CC(C)C)NC(CCNC(=O)OCc1ccccc1)C(=O)O (stereo partly drawn) [N-[3-(benzyloxy-carbonyl)amino-1-carboxy-n-propyl]-L-leucyl-O-methyl-L-tyrosine, N-methylamide]
IC50: < 8 µM
